Read-outs that look alike come from different tables or passages of the source.
Legend:
[1] = tested on: non-insulin dependent diabetic mellitus (NIDDM) male mice (C57BL/KsJ-db/db Jcl); assay: In vivo analysis in the db/db mouse (serum insulin, serum glucose, weight); conditions: for percentage increase in insulin levels: FIG. 1; for percentage decrease in glucose levels: FIG. 2; for percentage decrease in weight: FIG. 3
Experimental: […] All animals were allowed free access to normal laboratory chow and water.
Serum glucose and insulin levels were determined by Enzymatic Method (Mutaratase-GOD) and ELISA (mouse insulin assay kit) from orbital sinus blood samples obtained before (pretreatment) and 90 minutes after the last vehicle and/or test substance administration (postreatment) and percent change was determined.

GLP-1 receptor [2] = target: T1, GLP-1 receptor (Homo sapiens, UniProt P43220); assay: FLIPR calcium flux assay, antagonist format, GLP-1; format: cell-based; conditions: 1 μM, reference ligand Glucagon at EC80 as 0% inhibition; read-out: % Inhibition Antagonist GLP-1
Experimental: (§1) A FLIPR assay was conducted to monitor agonist and antagonist selectivity for compounds of the invention against the CBI and GLP-1 receptors. Percentage activation and percentage inhibition values were determined for each compound on each of the GPCRs listed above. Agonist selectivity was determined upon initial addition of compounds followed by 10 minute incubation at 25° C. Following compound incubation, reference agonists were added at EC80 to determine percentage inhibition.
(§2) Agonist percentage activation determinations were obtained by assaying sample compounds and referencing the Emax control for each of the GPCRs profiled. Antagonist percentage inhibition determinations were obtained by assaying sample compounds and referencing the control EC80 wells for each of the GPCRs profiled. The protocol design is as follows:
(§3) Unless specified otherwise, all sample compounds were diluted in 100% anhydrous DMSO including all serial dilutions. Occasionally sample compounds were provided in a different solvent, in this case all master stock dilutions were performed in the specified diluent. All control wells contained identical solvent final concentrations as sample compound wells.
(§4) Sample compounds were transferred from a master stock solution into a daughter plate that was used in the assay. Each sample compound was diluted into assay buffer (1×HBSS with 20 mM HEPES) at an appropriate concentration to obtain final concentrations.
(§5) Using the EC50 values determined previously, stimulated all pre-incubated sample compound and reference antagonist (if applicable) wells with EC80 of reference agonist. Read for 90 seconds using the FLIPRTETRA. (This assay added reference agonist to respective wells—then fluorescence measurements were collected to calculate percentage inhibition.)
(§6) All plates were subjected to appropriate baseline corrections. Once baseline corrections were processed, maximum fluorescence values were exported and data manipulated to calculate percentage activation, percentage inhibition, Z′, EC50, and IC50. Percentage activation data was calculated using Emax as 100% control. Percentage inhibition was calculated using EC80 as 0% inhibition.

CB1 receptor [3] = target: T2, CB1 receptor (Homo sapiens, UniProt P21554); assay: FLIPR calcium flux assay, antagonist format, CB1; format: cell-based; conditions: reference agonist CP-55,940 at EC80 as 0% inhibition
Experimental: as §1, §2, §3, §4, §5, §6

GLP-1 receptor [4] = target: T1, GLP-1 receptor; assay: FLIPR calcium flux assay, agonist format, GLP-1; format: cell-based; conditions: Emax of reference ligand Glucagon as 100%
Experimental: as §1, §2, §3, §4
(§7) All sample compounds were plated at 1 μM in duplicate for assaying against all GPCRs. Reference agonists were handled as mentioned above serving as assay control. These reference agonists were handled as described above for both EMax and EC80 control wells. Assay was read for 90 seconds using the FLIPRTETRA. (This assay run added sample compounds and reference agonist to respective rows.) At the completion of the first “Single Addition” assay run, assay plate was removed from the FLIPRTetra and placed at 25° C. for 10 minutes.
as §6

CB1 receptor [5] = target: T2, CB1 receptor; assay: FLIPR calcium flux assay, agonist format, CB1; format: cell-based; conditions: Emax of reference agonist CP-55,940 as 100%
Experimental: as §1, §2, §3, §4, §7, §6

in vivo = assay: in vivo; parameters: species or system Sprague-Dawley rats; conditions: rat; for bioavailability: male, Sprague-Dawley, po, 20 mg/kg; for half-life: male Sprague-Dawley rats
Experimental: The pharmacokinetics of compounds 4a, 6a, and 12 was evaluated in male Sprague-Dawley rats (n=3) following single intravenous (i.v., 1 mg/kg) or oral (p.o., 20 mg/kg) doses.

[6] = 200 mg/kg oral gavage once daily for three days
[7] = iv, single i.v. dose 1 mg/kg, read-out: t1/2 (i.v., hr) (converted)
[8] = single oral dose 20 mg/kg, read-out: t1/2 (p.o., hr) (converted)

T1 sequence (P43220 24-463): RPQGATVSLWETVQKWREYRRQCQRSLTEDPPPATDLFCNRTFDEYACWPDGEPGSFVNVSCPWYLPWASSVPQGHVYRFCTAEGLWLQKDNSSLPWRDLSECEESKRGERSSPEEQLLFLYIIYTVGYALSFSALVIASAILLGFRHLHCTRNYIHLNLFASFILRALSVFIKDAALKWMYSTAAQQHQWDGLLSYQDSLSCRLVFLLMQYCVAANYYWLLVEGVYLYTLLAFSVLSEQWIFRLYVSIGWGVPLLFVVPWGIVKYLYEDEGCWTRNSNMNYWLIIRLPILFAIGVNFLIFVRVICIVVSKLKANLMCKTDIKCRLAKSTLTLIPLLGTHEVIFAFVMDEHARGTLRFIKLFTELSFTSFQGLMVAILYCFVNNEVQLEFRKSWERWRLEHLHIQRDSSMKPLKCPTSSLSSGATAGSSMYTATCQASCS
T2 sequence (P21554 whole entry): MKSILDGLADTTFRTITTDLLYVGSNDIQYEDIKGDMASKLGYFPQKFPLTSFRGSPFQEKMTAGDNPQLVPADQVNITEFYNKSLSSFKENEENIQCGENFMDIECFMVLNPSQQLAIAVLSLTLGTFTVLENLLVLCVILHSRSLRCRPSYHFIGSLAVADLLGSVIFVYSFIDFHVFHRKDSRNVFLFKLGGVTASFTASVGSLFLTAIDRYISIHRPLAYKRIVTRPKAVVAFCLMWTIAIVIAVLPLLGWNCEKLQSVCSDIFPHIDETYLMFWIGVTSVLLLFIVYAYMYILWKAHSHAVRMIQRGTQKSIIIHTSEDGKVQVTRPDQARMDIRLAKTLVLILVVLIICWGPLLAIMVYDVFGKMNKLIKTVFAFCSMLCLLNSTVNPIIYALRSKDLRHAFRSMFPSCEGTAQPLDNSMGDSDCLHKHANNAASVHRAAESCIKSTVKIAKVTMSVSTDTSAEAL

Structure (SMILES)	percentage increase in insulin levels [1, 6]	percentage decrease in glucose levels [1, 6]	percentage decrease in weight [1, 6]	inhibition at 1 µM (GLP-1 receptor [2]) [%]	inhibition at 1 µM (CB1 receptor [3]) [%]	activation at 1 µM (GLP-1 receptor [4]) [%]	activation at 1 µM (CB1 receptor [5]) [%]	percentage increase in insulin levels ([1]; 100 mg/kg oral gavage once daily for three days)	bioavailability (in vivo) [%]	half-life (in vivo; [7]) [h]	half-life (in vivo; [8]) [h]	percentage increase in insulin levels ([1]; 300 mg/kg oral)	percentage decrease in glucose levels ([1]; 300 mg/kg oral)	percentage decrease in weight ([1]; 300 mg/kg oral)
CC(C)Cc1ccc([C@H](C)C(=O)N(C)CC[C@@H](Oc2ccc(C(F)(F)F)cc2)c2ccccc2)cc1 [Compound 12a]	significant increases	significant decreases	significant decreases	4.5	52.2	7.6	3.6	–	–	–	–	–	–	–
CC(C)Cc1ccc([C@H](C)C(=O)N(C)CC[C@H](Oc2ccc(C(F)(F)F)cc2)c2ccccc2)cc1 [Compound 12b]	significant increases	significant decreases	significant decreases	5.9	1.6	24.5	8.3	significant increase	–	–	–	–	–	–
C[C@H](C(=O)NCC[C@@H](Oc1ccc(C(F)(F)F)cc1)c1ccccc1)c1cccc(C(=O)c2ccccc2)c1 [Compound 6a]	significant increases	significant decreases	significant decreases	-7.2	77.9	38.6	4.2	–	14.8	1.4	2.1	–	–	–
CN(C)C(=N)N=C(N)N [metformin, reference compound]	–	–	–	–	–	–	–	–	–	–	–	does not show an increase	significant decrease	does not show a decrease
CC(C)Cc1ccc([C@H](C)C(=O)N(C)CCC(Oc2ccc(C(F)(F)F)cc2)c2ccccc2)cc1 (stereo partly drawn) [Compound 12]	–	–	–	-14.9	3.2	44.6	4.1	–	6.5	1.7	1.4	–	–	–
CC(C)Cc1ccc([C@H](C)C(=O)NCC[C@@H](Oc2ccc(C(F)(F)F)cc2)c2ccccc2)cc1 [Compound 4a]	–	–	–	-21.8	7.7	39.9	3.2	–	5.1	0.6	1	–	–	–

Reference: patent US20100292289A1 (priority 2007, published 2010)
